PMC11546786, “Designing Analogs of SAAP-148 with Enhanced Antimicrobial and Anti-LPS Activities” (International Journal of Molecular Sciences, 2024)
Ends that are not written are not given here.

Columns and labels:
[1] = tested on: Gram-negative bacteria (E. coli, P. aeruginosa, K. pneumoniae); test: Geometric mean of MICs against Gram-negative bacteria; assay type: cell-based; parameters: unit not given here
Method: (§1) The antibacterial activities of the peptides against […] were evaluated using a modified version of the Clinical Laboratory and Standards Institute (CLSI) broth microdilution method, as previously described. Briefly, the bacteria were cultured in liquid LB medium (comprising 10 g/L tryptone, 5 g/L yeast extract, and 10 g/L NaCl) at 37 °C until reaching mid-log phase. Subsequently, the bacterial concentration was adjusted to 1 × 10^6 colony-forming units (CFU)/mL. The peptides were then diluted serially with phosphate-buffered saline (PBS), followed by the addition of 50 μL of the diluted peptides to 50 μL of the bacterial suspension in a 96-well plate (Corning Inc., Lowell, MA, USA). After incubating at 37 °C for 18 to 20 h, the absorbance of each well was measured using a multi-well microplate reader (SpectraMax M5; Molecular Devices, Sunnyvale, CA, USA) at 600 nm.

[2] = Reversed-phase HPLC retention time as measure of peptide hydrophobicity; assay type: physicochemical; settings: retention time by reverse-phase HPLC, reflects hydrophobicity difference between analogues
Excerpt: The physicochemical parameters crucial for the antimicrobial activity of AMPs have been identified, encompassing net charge, helicity, hydrophobicity, and amphipathicity. The hydropathicity, mean relative hydrophobic moment, and charge of peptides were predicted using the HeliQuest (https://heliquest.ipmc.cnrs.fr/ (accessed on 12 March 2024)). Lysine is a hydrophilic amino acid, and its substitution leads to a decrease in the hydrophobicity of the SAAP-148 analogue. The anticipated results are consistent, with the degree of reduction in […] varying depending on the position at which lysine is substituted (Table 2). The amphipathicity of the peptides, as denoted by the μH (mean relative hydrophobic moment), is elaborated on in Table 2. The hydrophobic moment of SAAP-148 analogues was decreased except for SAAP-10, which is on account of the substitution occurring on the18th residue. (Figure 1) The 18th residue of SAAP-148 is glutamine, a polar amino acid residue, located at the junction of the hydrophobic and hydrophilic surfaces of the SAAP-148 α-helix. […] The retention time data determined by reversed-phase high-performance liquid chromatography (RP-HPLC) reflects the hydrophobicity difference between peptide analogues. It is well documented that the formation of a hydrophobic-binding domain due to peptide secondary structure can affect peptide interactions with reversed-phase matrices. This effect was observed particularly for amphipathic α-helical peptides. Given this preferred binding domain, amphipathic α-helical peptides are considerably more retentive than non-amphipathic peptides with the same amino acid composition.
This phenomenon was particularly evident in the case of amphipathic α-helical peptides. […] This discrepancy may be attributed to the lack of a well-defined α-helical structure in SAAP-148 and its analogues (Figure S1).

[3] = tested on: Klebsiella pneumonia (1.1736); assay type: cell-based, Klebsiella pneumoniae
Excerpt: (§2) The LL-37, SAAP-148 and its analogues peptides were synthesized according to the standard Fmoc procedure. The Fmoc-protected resin and monomers are first treated with a basic solvent (piperidine) to remove the amino protecting groups. The carboxyl group of the next amino acid is activated by an activator. The activated monomer reacts with the free amino group to form a peptide bond. These two steps are repeated in a cycle until the synthesis is complete. After synthesis, the peptide is eluted from the column and purified by reverse-phase semipreparative high-performance liquid chromatography as detailed in Table 1. The peptides were dissolved in PBS to create a 1000 μmol/L stock solution for subsequent use. The purity of the synthetic peptide exceeded 95%. Blood samples from healthy donors were obtained from the Fifth Medical Center of Chinese PLA General Hospital (Beijing, China). Human normal lung epithelial cells (BEAS-2B) and mouse mononuclear macrophages cells (RAW 264.7) were sourced from Beyotime Biotechnology (Beijing, China), along with the Enhanced Cell Counting Kit-8 (CCK-8) and nitric oxide detection kit. RPMI-1640 and DMEM were procured from Merck (Darmstadt, Germany), while FBS was obtained from ExCell Bio (Shanghai, China). LPS-B5 (from E. coli 055:B5) was procured from Invivogen (Toulouse, France). Five bacterial strains, including Escherichia coli (1.8732), Pseudomonas aeruginosa (1.2421), Klebsiella pneumonia (1.1736) as Gram-negative bacteria, and Staphylococcus aureus (1.8721) and Staphylococcus epidermidis (1.4260) as Gram-positive bacteria, were procured from the China General Microbiological Culture Collection Centre (CGMCC) (Beijing, China).
as §1

[4] = tested on: Gram-positive bacteria (S. aureus, S. epidermidis); test: Geometric mean of MICs against Gram-positive bacteria; assay type: cell-based; parameters: unit not given here
Method: as §1

[5] = tested on: Staphylococcus epidermidis (1.4260); assay type: cell-based
Excerpt: as §2, §1

[6] = tested on: Staphylococcus aureus (1.8721); assay type: cell-based
Excerpt: as §2, §1

[7] = tested on: Pseudomonas aeruginosa (1.2421); assay type: cell-based
Excerpt: as §2, §1

[8] = tested on: Escherichia coli (1.8732); assay type: cell-based
Excerpt: as §2, §1

[9] = tested on: human erythrocytes versus five bacterial strains; test: Therapeutic index (MHC/GM of MIC); settings: for Fold (TI of analogue compared with SAAP-148): TI change relative to SAAP-148; for TI (MHC/MIC): ratio of MHC to geometric mean of MIC (five strains)
Method: The geometric mean of minimum inhibitory concentration (MIC) values (GM) from the five strains was calculated to provide a comprehensive assessment of antimicrobial activity, as presented in Table 4.
The therapeutic index (TI) is a widely utilized parameter for indicating the specificity of antimicrobial agents, which is determined by the ratio of MHC (hemolytic activity) and MIC (antimicrobial activity). Consequently, larger TI values signify greater antimicrobial specificity. The TI can be enhanced through one of three mechanisms: increasing antimicrobial activity, reducing hemolytic activity while maintaining antimicrobial activity, or a combination of both augmenting antimicrobial activity and diminishing hemolytic activity.

[10] = CD spectra, secondary structure by BeStSel; assay type: physicochemical; settings: 30 μM SDS as printed, 100 μM peptide, 25 °C
Method: CD spectra (Figure S1) were acquired using a JASCO J-1500 spectropolarimeter (JASCO Inc., Easton, MD, USA) in 0.1 cm pathlength cells under nitrogen at 25 °C. The spectra were recorded in the range of 190 to 250 nm at a peptide concentration of 100 μM in SDS. Secondary structure was determined using the BeStSel server. Hydropathicity, mean relative hydrophobic moment, and charge of peptides were predicted using the HeliQuest (https://heliquest.ipmc.cnrs.fr/ (accessed on 12 March 2024)). The 3D structure of SAAP-148 and its analogues (Figure S2) was predicted using PEP-FOLD4 servers (https://bioserv.rpbs.univ-paris-diderot.fr/services/PEP-FOLD4/ (accessed on 19 June 2024)).

[11] = tested on: five bacterial strains; test: MICs against all five bacterial strains (geometric mean, range); assay type: cell-based; parameters: unit not given here; settings: geometric mean of MICs against all five bacterial strains
Method: as §1

[12] = tested on: human erythrocytes; test: Haemolytic activity; assay type: cell-based
Method: The haemolytic activity of the peptides was evaluated using a standard procedure with minor adjustments. Fresh human erythrocytes were washed thrice and subsequently resuspended at 1.25% haematocrit in PBS. Forty microlitres PBS-diluted peptide solution was added to a 96-well plate (Corning Inc., Lowell, MA, USA), and 160 μL of erythrocytes was added. After incubation at 37 °C for 30 min, the samples were centrifuged, and the absorbance of the supernatant was measured at 450 nm using a multi-well microplate reader (SpectraMax M5; Molecular Devices, Sunnyvale, CA, USA) and compared with the 100% haemolysis caused by 0.1% Triton X-100. The percentage of haemolysis was calculated according to the equation: Haemolysis%=Asample−Ablank/Atriton−Ablank×100

In the case of LKRVWKRVFKLLKRYWRKLKKPVR-NH2 [SAAP-10], the “GM to G−” value [1] is reported as 9.92, the “Rt” value [2] is reported as 13.69 min and the “MIC K. pneumoniae” value [3] is reported as 25.00 µM. For the same substance, the “GM to G+” value [4] was 12.51, the “MIC S. epidermidis” value [5] was 3.13 µM and the “MIC S. aureus” value [6] was 50.00 µM. The “MIC P. aeruginosa” value [7] was 6.25 µM, the “MIC E. coli” value [8] was 6.25 µM and the “Fold (TI of analogue compared with SAAP-148)” value [9] was 0.64. The “TI (MHC/MIC)” value [9] was 0.07, the Others [10] was 0% and the Turn [10] was 0%. The α-Helix [10] was 100%, the β-Antiparallel [10] was 0% and the β-Parallel [10] was 0%. The “MIC (GM)” value [11] was 10.88 and the “haemolytic activity compared with SAAP-148” value [12] was “comparable hemolytic activity to SAAP-148”.

With LKRVWKRKFKLLKRYWRQLKKPVR-NH2 [SAAP-4] the “GM to G−” value [1] was 7.87, the “Rt” value [2] was 9.96 min and the “MIC K. pneumoniae” value [3] was 100.00 µM. The “GM to G+” value [4] was 17.69, the “MIC S. epidermidis” value [5] was 3.13 µM and the “MIC S. aureus” value [6] was 100.00 µM. For the same substance, the “MIC P. aeruginosa” value [7] was 3.13 µM, the “MIC E. coli” value [8] was 1.56 µM and the “Fold (TI of analogue compared with SAAP-148)” value [9] was 83.55. For the same substance, the “TI (MHC/MIC)” value [9] was 9.19, the Others [10] was 3.6% and the Turn [10] was 0%. For the same substance, the α-Helix [10] was 50.9%, the β-Antiparallel [10] was 45.5% and the β-Parallel [10] was 0%. The “MIC (GM)” value [11] was 10.88 and the “fold increase of MHC over that of SAAP-148” value [12] was 133.33 fold.
